A short description of series [1]: Body weight in wild type male mice on normal or high-fat diet. It counts as in vivo. From the text: (§1) C57B16 mice and oblob (leptin-deficient) mice were from Jackson Laboratories (Bar Harbor, ME). Slc6a14-null mice (Slc6a14^y/− males and Slc6a14^−/− females) on C57BU/6 background were generated in Applicant's lab and have been used to assess the role of this transporter in breast cancer and colon cancer. Mice had free access to water and diet ad libitum. Age- and gender-matched mice were used in control groups (no treatment). Mice were fed a normal diet (ND) (50 IF/6F 5V5R, Labdiet, St. Louis, MO) or a high-fat diet (HFD; 55% calorie from fat) (TD93075; Teklad diets, Madison, WI). The protocol was approved by the Institutional Animal Care and Use Committee of the Texas Tech University Health Sciences Center, Lubbock, TX, USA (IACUC approval number: 15002 for breeding protocol and 18005 for experimental protocol).
Administration of α-methyltryptophan to wild type mice on a high-fat diet would make the mice gain more weight as we found in Slc6a14-null male mice. The results turned out to be quite the opposite. When exposed to the drug for 1 week (2 mg/ml in drinking water; DL-enantiomeric mixture, α-MT), untreated wild type male mice on a high-fat diet gained weight whereas mice exposed to the drug lost weight (FIG. 1B). Since the deletion of Slc6a14 increased the weight gain whereas administration of α-MT to wild type mice decreased the weight gain, the effect of the drug on the body weight has little to do with its ability to block the transporter.
Next, Applicant examined the effect of α-MLT on the body weight in WT C57BL/6 male mice on a normal diet or a high-fat diet (55% calories from fat). The drug was given in drinking water (1 mg/ml). Both with the normal diet and the high-fat diet, mice gained weight when not treated with α-MLT (FIGS. 2A-B). […] This weight-reducing effect was evident with both diets.
(§2) When the drug was withdrawn, mice began to gain weight (FIG. 2B). At 4-weeks of drug exposure, circulating levels of glucose and leptin were measured. Blood glucose was higher in control (i.e., untreated) mice on the high-fat diet than in those on the normal diet (FIGS. 2C-2D). The same was true with leptin levels, which correspond to fat content (FIGS. 2C-2D).

Series [2] in a line: Body weight in Slc6a14-null male mice on high-fat diet (D- vs L-isomer). It counts as in vivo. To be noted: Slc6a14-null male mice on HFD; 1 mg/ml in drinking water, one week.
Source text: as §1
Next, Applicant aimed to determine which isomer in the enantiomeric mixture of α-methyltryptophan elicited a weight-reducing effect. For this, Applicant used the Slc6a14-null male mice on a high-fat diet as a model of obesity. Applicant selected this mouse model of obesity for initial experiments because the weight-reducing effect of α-MT is independent of what the drug does to the transport function of Slc6a14.
Applicant administered the D- and L-isomers separately to these mice on a high-fat diet at a dose of 1 mg/ml in drinking water for one week. […]

A short description of series [3]: Circulating glucose and leptin in wild type male mice. It counts as in vivo. The conditions noted are these: WT male mice, ND or HFD (independent of diet); 4 weeks, 1 mg/ml in drinking water; 4-h fasting. As to the method: Animals were fasted for 4 h and blood was collected as described above. Blood samples were centrifuged at 1500×g for 20 min and the serum samples were collected and kept at −80° C. until analyzed. Leptin was measured using the mouse/rat Quantikine ELISA kit (MOB00B, R & D Systems, MN).
as §2
(§3) Applicant then performed glucose-tolerance test in control and α-MLT-treated (2-week treatment; 1 mg/ml in drinking water) mice which were fed the high-fat diet for 12 weeks. […] At the end of the experiment, mice were killed, and liver and abdominal fat pad were excised and weighed. Treatment with α-MLT reduced the weight of the liver and the abdominal fat (FIGS. 3C-D).

The nature of series [4]: Intraperitoneal glucose tolerance test in wild type mice on high-fat diet. The class given is in vivo. The conditions noted are these: WT mice fed HFD 12 weeks; 2-week treatment, 1 mg/ml in drinking water. As to the method:
(§4) Intraperitoneal GTT was done in mice fasted for 4 h. Blood glucose was determined using the TRUE track blood glucose monitor (Trividia Health Inc, Fort Lauderdale, FL) at 0, 15, 30, 60, 90 and 120 min after i.p. injection of glucose (2 g/kg body weight).
as §3

Series [5] in a line: Liver and abdominal fat pad weight in wild type mice on high-fat diet. It counts as in vivo. The conditions noted are these: WT male mice on HFD; 1 mg/ml in drinking water. As to the method: as §3
Series [6] is described as follows: Hepatic steatosis (Oil-red-O staining) in wild type mice on high-fat diet. To be noted: WT mice on HFD 14 weeks; treatment during last two weeks. The class given is in vivo. As to the method:
Liver tissue was excised and weighed immediately, snap-frozen in liquid nitrogen, and stored at −80° C. For Oil-red-O (ORO) staining, tissues were OCT embedded, frozen at −20° C., and cut, followed by staining. Slides made from formalin-fixed, paraffin-embedded liver blocks were stained with hematoxylin and eosin (H & E).
Wild type mice developed fatty liver when fed a high-fat diet for 14 weeks as evident from Oil-red-O staining of the liver sections for neutral lipids (FIG. 3E). […] In this experiment, mice were fed the high-fat diet for 12-weeks, after which the mice were divided into two groups, one with no α-MLT exposure and the other with α-MLT administration. The drug treatment was continued for two additional weeks, and all through the experiment, both groups were continuously fed the same high-fat diet.

The nature of series [7]: Body weight and other parameters in wild type female mice. To be noted: 1 mg/ml in drinking water, 2 weeks. It counts as in vivo. As to the method:
The experiments described above were done with male mice. To see if α-MLT elicits a similar weight-loss effect in female mice, wild type female mice were exposed to α-MLT (1 mg/ml in drinking water) at 3 months of age. The untreated mice gained weight and α-MLT-exposed mice lost weight (FIG. 4A). At end of 2 weeks treatment, mice were killed and mammary fat pad and liver were excised and weighed. The weights of both tissues decreased in the treated mice (FIGS. 4B-C).

Series [8] in a line: Body weight, food intake, glucose and glucose tolerance in oblob mice on normal diet. The class given is in vivo. As to the method:
as §4
oblob mice are deficient in leptin and therefore obese even on a normal diet. […] Applicant used 12-week-old male oblob mice to evaluate the weight-reducing effect of α-MLT (1 mg/ml in drinking water). There was a gradual weight gain on a normal diet in control mice without the drug (FIG. 5A). In contrast, mice exposed to α-MLT lost weight. At the end of 3-week drug exposure, the reversibility of α-MLT effect was evaluated by withdrawing the drug. […] At the end of the three-week treatment with α-MLT, mice were killed and the weights of the liver and abdominal fat pad were determined.
Applicant also monitored food intake, blood glucose, and glucose tolerance in control mice and α-MLT-treated mice.

Series [9] is described as follows: Serum metabolic panel (lipid profile, kidney and liver function) in wild type mice on high-fat diet. To be noted: WT mice on HFD, 1 mg/ml in drinking water, 4 weeks. The class given is in vivo. As to the method:
At the end of the experiment, mice were fasted for 4 h, and blood was collected via orbital sinus using local anesthesia proparacaine. Serum was prepared by centrifugation of the clotted blood, and used for metabolic panel. This was done at our Laboratory Animal Resources Center.
Applicant evaluated the serum profile for metabolites and enzymes to assess the impact of α-MLT (4 weeks treatment; 1 mg/ml in drinking water) in normal mice which were on the high-fat diet for three months prior to initiation of the drug treatment. These tests were designed to assess the function of the kidneys and liver.

The conditions of series [10]: rats; orally 150 mg/kg per day; cited from earlier work.
Setting [11] is: oblob male mice on normal diet, 1 mg/ml in drinking water, three weeks.
[12] abbreviates: oblob mice on normal diet, three-week treatment.

SMILES strings stand for the structures. “Also recorded” adds a separate entry of the source.

On to `C[C@](N)(Cc1c[nH]c2ccccc12)C(=O)O` [α-MLT, α-methyl-L-tryptophan], for which the “onset of weight-reducing effect” value in series [1] (1 mg/ml in drinking water) is given as “within a day”. Moreover, the body weight result in [1] (WT C57BL/6 male mice on normal diet or high-fat diet (both diets), 1 mg/ml in drinking water) was “decrease in body weight”. Also, the “reversibility of effect on body weight” value in series [1] (upon withdrawal of the drug) is listed as “reversible”. In series [2], the “weight-reducing effect (body weight)” value was “active as a weight-reducing agent”. Moreover, in [3], the “circulating level of glucose” value is given as “significant decrease” and the “circulating level of leptin” value was “significant decrease”. Further, the “glucose tolerance (i.p. GTT)” value in series [4] was “better glucose tolerance”. Moreover, in series [5], the “weight of the abdominal fat” value is “reduced” and the “weight of the liver” value is “reduced”. Further, the “hepatic steatosis (Oil-red-O neutral lipids)” value in series [6] is “almost completely prevented”. In addition, in series [7], the blood glucose level result is “decreased”, the body weight entry is recorded as “lost weight”, the liver weight result is on record as “decreased” and the “mammary fat pad weight” value was “decreased”. For the same molecule, the serum leptin level entry in series [7] is listed as “decreased”. In series [8] (12-week-old male oblob mice on normal diet, 1 mg/ml in drinking water, 3 weeks), the body weight entry is on record as “lost weight; also recorded: decreased”. The food intake entry in [8] (oblob male mice on normal diet, 1 mg/ml in drinking water) was “decreased food intake”. In series [8] (setting [11]), the blood glucose entry is given as “lower” and the “insulin sensitivity (glucose tolerance test)” value is listed as “improved insulin sensitivity”. Also, in series [8] (setting [12]), the abdominal fat entry is given as “significantly reduced” and the liver weight result is “significantly reduced”. For the same molecule, the “reversibility of effect on body weight” value in [8] (oblob mice, drug withdrawn after 3-week exposure) was “started gaining weight”. Moreover, in series [9], the “kidney function (blood urea nitrogen, creatinine)” value is on record as “no evidence of compromise in kidney function” and the “liver function (bilirubin, AST)” value is “no compromise in liver function”. Further, in series [9] (mean ± S.E.M, N=5), the AST was found to be 79.5 ± 16.3 U/I, the Albumin amounted to 1.90 ± 0.04 g/dL, the BUN was determined as 34.2 ± 2.6 mg/dL and the Creatinine stood at 0.30 ± 0.04 mg/dL. For the same molecule, in [9] (mean ± S.E.M, N=5), the Globulin was 2.35 ± 0.09 g/dL, the Total bilirubin came out at 0.6 ± 0.1 mg/dL, the Total protein amounted to 4.25 ± 0.06 g/dL and the “serum Cholesterol” value came to 106 ± 3 mg/dL. Moreover, the “serum Triglycerides” value in series [9] (mean ± S.E.M, N=5) amounted to 97 ± 17 mg/dL. Moreover, the adverse effects entry in series [10] was “no noticeable adverse effects”.

Consider `C[C@@](N)(Cc1c[nH]c2ccccc12)C(=O)O` [α-MDT, α-methyl-D-tryptophan, reference compound], for which the “weight-reducing effect (body weight)” value in series [2] was “negligible effect”.

For `CC(N)(Cc1c[nH]c2ccccc12)C(=O)O` (racemic) [α-MT, α-methyl-DL-tryptophan], the body weight gain/loss result in [1] (wild type male mice on HFD, 2 mg/ml in drinking water, 1 week) is recorded as “lost weight”.

(Values after patent publication US12721836B2, “Alpha-methyl-L-tryptophan as an orally active drug for treating or preventing metabolic conditions” (Texas Tech University System, priority 2021, dated 2026).)
